Read-outs that look alike come from different tables or passages of the source.
How the values were obtained:
Format in all cases: biochemical
KDM4C (JMJD2C) = target: T1, KDM4C (JMJD2C) (Homo sapiens, UniProt Q9H3R0); test: Histone lysine demethylase AlphaLISA assay, KDM4C
T1 construct: KDM4C; BRIC, Denmark; 1-349; E. coli; host or cells: E. coli
T1 sequence (Q9H3R0 1-349): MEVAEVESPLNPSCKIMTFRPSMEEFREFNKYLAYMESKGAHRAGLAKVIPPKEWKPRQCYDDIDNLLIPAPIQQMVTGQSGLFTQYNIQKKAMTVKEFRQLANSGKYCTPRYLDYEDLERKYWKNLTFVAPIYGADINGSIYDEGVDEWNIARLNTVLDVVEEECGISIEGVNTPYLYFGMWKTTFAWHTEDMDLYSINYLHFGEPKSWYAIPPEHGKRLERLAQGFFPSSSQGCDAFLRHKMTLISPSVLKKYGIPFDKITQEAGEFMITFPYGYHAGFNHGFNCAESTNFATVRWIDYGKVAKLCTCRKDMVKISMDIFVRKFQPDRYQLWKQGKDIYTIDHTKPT
Outline: (§1)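 Buffer: 50 mM Hepes pH 7.4-8.0, Tween-20, 0.1% BSA, 5 μM ammonium iron(II) sulfate. Enzyme + compound (DMSO) 10 min, then substrate at RT; acceptor and streptavidin donor beads added, dark incubation, AlphaLISA read.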

KDM2B (FBXL10) = target: T2, KDM2B (FBXL10) (Homo sapiens, UniProt Q8NHM5); test: Histone lysine demethylase AlphaLISA assay, KDM2B
T2 construct: KDM2B; BPS,; 1-650; Bac; purchased BPS Bioscience, US; host or cells: baculovirus system
T2 sequence (Q8NHM5 1-650): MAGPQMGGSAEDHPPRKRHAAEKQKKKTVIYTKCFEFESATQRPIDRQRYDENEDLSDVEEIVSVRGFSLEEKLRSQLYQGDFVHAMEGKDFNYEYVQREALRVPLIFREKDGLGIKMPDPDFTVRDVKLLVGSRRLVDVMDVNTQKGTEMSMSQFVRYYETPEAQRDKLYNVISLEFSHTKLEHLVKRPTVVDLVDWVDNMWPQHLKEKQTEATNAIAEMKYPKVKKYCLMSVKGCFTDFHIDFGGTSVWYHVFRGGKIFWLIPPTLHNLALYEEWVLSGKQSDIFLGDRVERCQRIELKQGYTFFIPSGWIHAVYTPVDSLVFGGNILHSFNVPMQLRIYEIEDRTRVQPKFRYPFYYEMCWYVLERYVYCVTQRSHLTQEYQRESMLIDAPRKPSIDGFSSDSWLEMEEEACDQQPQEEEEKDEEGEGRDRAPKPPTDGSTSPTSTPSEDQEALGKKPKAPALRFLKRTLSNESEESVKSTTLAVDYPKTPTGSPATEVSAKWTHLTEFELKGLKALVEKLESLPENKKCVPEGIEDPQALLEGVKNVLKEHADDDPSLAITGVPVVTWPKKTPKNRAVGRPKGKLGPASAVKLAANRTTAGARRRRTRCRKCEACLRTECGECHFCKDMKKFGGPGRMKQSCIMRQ
Outline: as §1

PHF8 (KDM7) = target: T3, PHF8 (KDM7) (Homo sapiens, UniProt Q9UPP1); test: Histone lysine demethylase AlphaLISA assay, PHF8
T3 construct: KDM7 (PHF8); BRIC; 1-1322; Bac
T3 sequence (Q9UPP1 37-440 limits assumed): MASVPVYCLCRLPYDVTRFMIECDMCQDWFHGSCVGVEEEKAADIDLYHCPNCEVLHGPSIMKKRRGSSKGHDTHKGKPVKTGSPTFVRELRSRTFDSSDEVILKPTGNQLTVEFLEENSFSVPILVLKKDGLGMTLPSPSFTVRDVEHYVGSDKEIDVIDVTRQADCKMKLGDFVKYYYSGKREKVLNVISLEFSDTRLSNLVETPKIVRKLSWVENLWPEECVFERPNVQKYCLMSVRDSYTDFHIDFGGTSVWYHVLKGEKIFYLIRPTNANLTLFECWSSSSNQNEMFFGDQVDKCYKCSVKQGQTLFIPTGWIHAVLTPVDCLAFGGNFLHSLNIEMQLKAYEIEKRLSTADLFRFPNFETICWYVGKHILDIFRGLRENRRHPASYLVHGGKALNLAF
Outline: as §1

KDM5B (PLU-1) = target: T4, KDM5B (PLU-1) (Homo sapiens, UniProt Q9UGL1); test: Histone lysine demethylase AlphaLISA assay, KDM5B
T4 construct: BRIC; 1-809; E. coli; host or cells: E. coli
T4 sequence (Q9UGL1 1-809): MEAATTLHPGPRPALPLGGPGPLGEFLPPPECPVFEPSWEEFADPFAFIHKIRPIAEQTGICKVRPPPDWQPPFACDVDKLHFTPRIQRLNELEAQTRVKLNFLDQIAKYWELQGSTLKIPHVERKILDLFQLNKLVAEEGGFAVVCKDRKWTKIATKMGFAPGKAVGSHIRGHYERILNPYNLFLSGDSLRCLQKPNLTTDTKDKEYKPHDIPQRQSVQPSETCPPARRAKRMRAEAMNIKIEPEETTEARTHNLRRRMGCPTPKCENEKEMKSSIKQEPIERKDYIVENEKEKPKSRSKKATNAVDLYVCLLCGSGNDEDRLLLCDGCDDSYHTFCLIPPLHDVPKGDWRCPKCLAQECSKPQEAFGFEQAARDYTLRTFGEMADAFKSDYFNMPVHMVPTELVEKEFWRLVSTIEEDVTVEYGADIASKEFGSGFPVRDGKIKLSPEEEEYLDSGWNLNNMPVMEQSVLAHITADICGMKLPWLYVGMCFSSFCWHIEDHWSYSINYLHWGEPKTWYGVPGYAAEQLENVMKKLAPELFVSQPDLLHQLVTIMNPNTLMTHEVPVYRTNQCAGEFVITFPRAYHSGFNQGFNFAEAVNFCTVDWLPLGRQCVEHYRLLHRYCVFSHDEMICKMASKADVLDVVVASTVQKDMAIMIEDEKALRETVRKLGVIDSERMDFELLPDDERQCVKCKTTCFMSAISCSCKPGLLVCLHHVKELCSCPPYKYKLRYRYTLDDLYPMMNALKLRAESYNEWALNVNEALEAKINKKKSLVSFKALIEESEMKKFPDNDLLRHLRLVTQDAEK
Outline: as §1

[1] = AlphaLISA assay, read-out: HDME Inhibition KDM4C (IC50)
[2] = AlphaLISA, in vitro, read-out: HDME Inhibition KDM4C
[3] = AlphaLISA, in vitro, read-out: HDME Inhibition KDM2B
[4] = AlphaLISA, in vitro, read-out: HDME Inhibition PHF8
[5] = AlphaLISA assay, read-out: HDME Inhibition KDM5B (IC50)
[6] = AlphaLISA, in vitro, read-out: HDME Inhibition KDM5B

Structure (SMILES)	IC50 (KDM4C (JMJD2C); [1])	IC50 (KDM4C (JMJD2C); [2])	IC50 (KDM2B (FBXL10); [3])	IC50 (PHF8 (KDM7); [4])	IC50 (KDM5B (PLU-1); [5])	IC50 (KDM5B (PLU-1); [6])	IC50 (KDM5B (PLU-1))	IC50 (KDM2B (FBXL10); AlphaLISA assay, read-out: HDME Inhibition KDM2B (IC50))	IC50 (PHF8 (KDM7); AlphaLISA assay, read-out: HDME Inhibition PHF8 (IC50))
Cc1nnc(CNCc2cc(C(=O)O)cc(CO)n2)n1CCCC(C)C [Compound 70, 2-(hydroxymethyl)-6-[({[5-methyl-4-(4-methylpentyl)-4H-1,2,4-triazol-3-yl]methyl}amino)methyl]pyridine-4-carboxylic acid]	> 10 µM	> 10 µM	0.485 µM	1.75 µM			0.559 µM		
O=C(O)c1cc(CO)nc(CNCc2nccn2Cc2ccc(F)cc2)c1 [Compound 81, 2-{[({1-[(4-fluorophenyl)methyl]-1H-imidazol-2-yl}methyl)amino]methyl}-6-(hydroxymethyl)pyridine-4-carboxylic acid]		0.823 µM	0.14 µM	0.334 µM			0.021 µM		
Cc1cc(C(=O)O)cc(CNCc2nnc(C)n2Cc2ccc(Cl)c(Cl)c2)n1 [Compound 57, 2-{[({4-[(3,4-dichlorophenyl)methyl]-5-methyl-4H-1,2,4-triazol-3-yl}methyl)amino]methyl}-6-methylpyridine-4-carboxylic acid]	> 10 µM	> 10 µM	1.14 µM	1.27 µM	> 10 µM	> 10 µM			
Cc1cc(C(=O)O)cc(CNCc2nccn2Cc2cccc(C#N)c2)n1 [Compound 47, 2-{[({1-[(3-cyanophenyl)methyl]-1H-imidazol-2-yl}methyl)amino]methyl}-6-methylpyridine-4-carboxylic acid]	> 10 µM	> 10 µM	1.26 µM	0.391 µM			4.08 µM		
Cc1cc(C(=O)O)cc(CNCc2nnc(CN(C)C)n2Cc2ccc(F)cc2)n1 [Compound 44, 2-{[({5-[(dimethylamino)methyl]-4-[(4-fluorophenyl)methyl]-4H-1,2,4-triazol-3-yl}methyl)amino]methyl}-6-methylpyridine-4-carboxylic acid]	> 10 µM	> 10 µM	2.01 µM	2.38 µM	> 10 µM	> 10 µM			
CCc1nnc(CNCc2cc(C(=O)O)cc(CO)n2)n1CCCc1ccccc1 [Compound 69, 2-[({[5-ethyl-4-(3-phenylpropyl)-4H-1,2,4-triazol-3-yl]methyl}amino)methyl]-6-(hydroxymethyl)pyridine-4-carboxylic acid]	> 10 µM	> 10 µM	0.027 µM	0.662 µM	> 10 µM	> 10 µM			
CC(O)c1nnc(CNCc2cc(C(=O)O)cc(CO)n2)n1Cc1ccc(F)cc1 (stereo not shown) [Compound 77, 2-{[({4-[(4-fluorophenyl)methyl]-5-(1-hydroxyethyl)-4H-1,2,4-triazol-3-yl}methyl)amino]methyl}-6-(hydroxymethyl)pyridine-4-carboxylic acid]	> 10 µM	> 10 µM	0.379 µM	1.09 µM	> 10 µM	> 10 µM			
Cc1cc(C(=O)O)cc(CNCc2nnc(CCN(C)C)n2Cc2ccc(F)cc2)n1 [Compound 46, 2-{[({5-[2-(dimethylamino)ethyl]-4-[(4-fluorophenyl)methyl]-4H-1,2,4-triazol-3-yl}methyl)amino]methyl}-6-methylpyridine-4-carboxylic acid]	> 10 µM	> 10 µM	2.27 µM	2.28 µM	> 10 µM	> 10 µM			
O=C(O)c1cc(CO)nc(CNCc2nnc(Cc3cccs3)n2Cc2ccc(F)cc2)c1 [Compound 71, 2-{[({4-[(4-Fluorophenyl)methyl]-5-(thiophen-2-ylmethyl)-4H-1,2,4-triazol-3-yl}methyl)amino]methyl}-6-(hydroxymethyl)pyridine-4-carboxylic acid]	> 10 µM	> 10 µM	0.138 µM	1.78 µM	> 10 µM	> 10 µM			
Cc1cc(OCc2ccccc2)c(CCNCc2cc(C(=O)O)cc(C)n2)nn1 [Compound 82, 2-[({2-[4-(benzyloxy)-6-methylpyridazin-3-yl]ethyl)amino)methyl]-6-methylpyridine-4-carboxylic acid]	> 10 µM	> 10 µM	1.4 µM	3.32 µM	> 10 µM	> 10 µM			

Other lines, results leading:

IC50 (KDM4C (JMJD2C); [1])	IC50 (KDM4C (JMJD2C); [2])	IC50 (KDM2B (FBXL10); [3])	IC50 (PHF8 (KDM7); [4])	IC50 (KDM5B (PLU-1); [5])	IC50 (KDM5B (PLU-1); [6])	IC50 (KDM5B (PLU-1))	IC50 (KDM2B (FBXL10); AlphaLISA assay, read-out: HDME Inhibition KDM2B (IC50))	IC50 (PHF8 (KDM7); AlphaLISA assay, read-out: HDME Inhibition PHF8 (IC50))	Structure (SMILES)
> 10 µM	> 10 µM	0.328 µM	1.11 µM	> 10 µM	> 10 µM				CCc1cnc(CNCc2cc(C(=O)O)cc(C)n2)n1CCCC(C)C [Compound 91, 2-[({[5-ethyl-1-(4-methylpentyl)-1H-imidazol-2-yl]methyl}amino)methyl]-6-methylpyridine-4-carboxylic acid]
> 10 µM	> 10 µM	0.053 µM	0.506 µM	> 10 µM	> 10 µM				CCc1cnc(CNCc2cc(C(=O)O)cc(C)n2)n1Cc1cccs1 [Compound 115, 2-[({[5-ethyl-1-(thiophen-2-ylmethyl)-1H-imidazol-2-yl]methyl}amino)methyl]-6-methylpyridine-4-carboxylic acid]
> 10 µM	> 10 µM	0.375 µM	3.52 µM	> 10 µM	> 10 µM				CC#CCc1cnc(CNCc2cc(C(=O)O)cc(C)n2)n1Cc1ccc(F)cc1 [Compound 112, 2-[({[5-(but-2-yn-1-yl)-1-[(4-fluorophenyl)methyl]-1H-imidazol-2-yl]methyl}amino)methyl]-6-methylpyridine-4-carboxylic acid]
> 10 µM	> 10 µM	0.461 µM	1.86 µM	> 10 µM	> 10 µM				Cc1cc(C(=O)O)cc(CNCc2nnc(C(C)O)n2Cc2ccc(F)cc2)n1 (stereo not shown) [Compound 85, 2-{[({4-[(4-fluorophenyl)methyl]-5-(1-hydroxyethyl)-4H-1,2,4-triazol-3-yl}methyl)amino]methyl}-6-methylpyridine-4-carboxylic acid]
> 10 µM	> 10 µM	> 10 µM	> 10 µM	> 10 µM	> 10 µM		> 10 µM	> 10 µM	NCc1cc(C(=O)O)cc(CN)n1 [Compound 110, 2,6-bis(aminomethyl)pyridine-4-carboxylic acid]

From US9802941B2, “Compounds and methods for inhibiting histone demethylases” (Gilead Sciences, Inc., priority 2014, dated 2017)
